According to US20240122844A1, “CARRIER FOR SUSTAINED-RELEASE OF DRUG AND USE THEREOF” (KUNMING QINGCHENG HEALTHCARE TECH LTD., priority 2022, published 2024):
Counter-ions that a name gives are not always drawn.

Test: Sustained release of metformin hydrochloride, ranitidine hydrochloride, vitamin B1 and benzalkonium chloride from carrier formulations into purified water, UV absorbance
Type: physicochemical
Settings: released when absorbance is increased less than 0.01
Source text: • 1) Test samples: formulation 5, formulation 6, formulation 7, formulation 8, formulation 9; • 2) Drug release medium: purified water (Wahaha®).
• 1) group F where the sample is 0.1990 g of formulation 6 and the medium is 30.11 g of purified water; • 2) group G where the sample is 0.2016 g of formulation 5 and the medium is 30.14 g of purified water; • 3) group H where the sample is 0.2087 g of formulation 7 and the medium is 30.11 g of purified water; • 4) group I where the sample is 0.2016 g of formulation 8 and the medium is 30.12 g of purified water; • 5) group J where the sample is 0.0975 g of formulation 9 and the medium is 30.18 g of purified water.
• 1) The test samples with different formulations were respectively introduced into 2 mL-syringes. 2) About 0.2 g of the test samples, but for benzalkonium chloride about 0.1 g of the test sample, were squeezed out from the syringes without a needle into 30 mL transparent bottles respectively. The tests samples in the bottles were accurately weighed. 3) 30.0 g of the drug release medium was added to each bottle. 4) The absorbance spectrum of the liquid in each bottle was scanned and the absorbance at the wavelength of 232 nm for metformin hydrochloride, 313 nm for ranitidine hydrochloride, 261 nm for vitamin B1, or 219 nm for benzalkonium chloride was measured every 24 hours. 5) In groups H, I and J, the purified water (Wahaha®) was used as the reference solution. In groups F and G, blank carriers in formulations 2 and 3 without metformin hydrochloride were used to prepare the reference solutions according to the above steps 1) to 3) of “4. Experimental method”. The liquids to be tested and the reference solutions of groups F and G were taken from the bottles with the carriers and put back to the bottles after the spectral scanning.

Duration of release of the drug from the sustained-release carriers	Compound
about 3 days	CN(C)C(=N)N=C(N)N [metformin hydrochloride]
about 4 days	CNC(=C[N+](=O)[O-])NCCSCc1ccc(CN(C)C)o1 [ranitidine hydrochloride]
about 4 days	Cc1ncc(C[n+]2csc(CCO)c2C)c(N)n1 [vitamin B1]
about 4 days	benzalkonium chloride
